Data on 14 compounds can be found in ChEMBL document CHEMBL1132888, “4,10-Dihydro-4-oxo-4H-imidazo[1,2-a]indeno[1,2-e]pyrazin-2-carboxylic acid derivatives: highly potent and selective AMPA receptors antagonists with in vivo activity” (Bioorg Med Chem Lett, 2000).

The source made the active and inactive calls. The rule behind the calls is not given here.

What is called ED50 is the dose at which the effect has come halfway, by size or by number of responders. The low end stands for greater potency, the high end for weaker potency. Usually IC50 stands for the point on the concentration scale where inhibition reaches its midpoint.

The subject of assay [1] is Mus musculus. As to the kind of experiment: Effective dose of the intraperitoneally administered compound required to protect 50% of mice from tonic convulsion caused by maximal electric shock (MES). The format is functional. The settings on record: ip.
In assay [2] the target is Glutamate receptor ionotropic, kainate. The settings on record: oocyte.
Assay [3] relates to Mus musculus. As to the kind of experiment: Effective dose of the intraperitoneally administered compound required to protect 50% of DBA/2 mice from tonico-clonic convulsion. The format is functional. The following applies: ip.
The target in assay [4] is Glutamate receptor ionotropic, AMPA (Rattus norvegicus, UniProt P19490+P19491+P19492+P19493).
Description: Displacement of [3H]AMPA from Ionotropic glutamate receptor AMPA of rat cortical membranes
Assay [5] deals with Glutamate NMDA receptor. Nature of the assay: Displacement of [3H]DCKA from N-methyl-D-aspartate glutamate receptor of rat cortical membrane.
In assay [6] the target is Glutamate receptor ionotropic, kainate (Rattus norvegicus) (UniProt P22756+Q01812+P42260+P42264+Q63273). Nature of the assay: Inhibitory activity against generation of currents by 50 uM kainate in Xenopus oocytes injected with rat brain mRNA. The settings on record: Oocyte. It is filed as functional, cell-based.
In assay [7] the test system is Mus musculus. Nature of the assay: Compound tested for sound induced convulsions in DBA/2 mice following ip administration; Compound was active. It is filed as functional, organism-based.

Compound `CN1CCCC12c1ccccc1-c1nc(O)c3nccn3c12` (racemic) registered an ED50 in assay [1] of 17 mg/kg. Moreover, in assay [2], the IC50 is 890 nM.

`O=c1[nH]c2cc(-n3ccnc3)c([N+](=O)[O-])cc2[nH]c1=O` [YM-90K]: the ED50 in assay [3] was 15 mg/kg; in assay [1], 12 mg/kg. In assay [2], this compound had a half-inhibitory concentration (IC50) of 260 nM.

The compound `O=C(O)[C@@H]1C[C@H]2C[C@@H](CCc3nn[nH]n3)CC[C@H]2CN1` [TEZAMPANEL ANHYDROUS] displayed an ED50 in assay [1] of 4 mg/kg. For the same compound, in assay [2], the midpoint of inhibition, the IC50, lay at 230 nM.

`CCOC(=O)c1cn2c3c(nc(O)c2n1)-c1ccc(F)cc1C3` gave an ED50 in assay [1] of over 80 mg/kg. In addition, in assay [4], the IC50 worked out at 55 nM.

On to `CCOC(=O)c1cn2c3c(nc(O)c2n1)-c1ccccc1C3`, for which the ED50 in assay [3] and in assay [1] was over 80 mg/kg throughout. Also, the figures for the IC50 in assay [5], in assay [4] and in assay [2] were 198 nM, 210 nM and 350 nM, respectively.

`NC(=O)c1cn2c3c(nc(O)c2n1)-c1ccccc1C3`: the ED50 in assay [1] was over 80 mg/kg. The IC50 in assay [5] was 730 nM; in assay [4] it was 476 nM; in assay [2] it was 1250 nM.

As for `NS(=O)(=O)c1cccc2c1c([N+](=O)[O-])cc1nc(O)c(O)nc12` [NBQX], the values for the ED50 in assay [3] and in assay [1] were 13 mg/kg and 36 mg/kg, respectively. The compound further came in with an IC50 in assay [5] of over 10000 nM.

With `CCOC(=O)c1cn2c3c(nc(O)c2n1)-c1ccc(NC(=O)NC)cc1C3`, the ED50 in assay [3] was over 20 mg/kg; in assay [1], over 80 mg/kg. Further, the IC50 in assay [5] was 10000 nM; in assay [4] it was 9 nM; in assay [2] it was 6 nM.

On to `Oc1nc2c(n3ccnc13)Cc1ccccc1-2`, for which, in assay [1], the 50% effect level (ED50) was put at a dose of 62 mg/kg. Moreover, in assay [2], the half-maximal inhibitory concentration (IC50) amounted to 1800 nM.

`O=C(O)c1cn2c3c(nc(O)c2n1)-c1ccc(F)cc1C3`: in assay [1], the 50% effect level (ED50) was put at a dose of 56 mg/kg. In addition, the IC50 amounted to 455 nM in assay [5], 60 nM in assay [4] and 25 nM in assay [2].

For `Nc1ccc2c(c1)Cc1c-2nc(O)c2nc(C(=O)O)cn12`, the ED50 in assay [1] came out at 80 mg/kg. In addition, the values for the IC50 in assay [5], in assay [4] and in assay [2] were 6900 nM, 473 nM and 236 nM, respectively.

Consider `O=C(O)c1cn2c3c(nc(O)c2n1)-c1ccccc1C3`, for which the values for the ED50 in assay [3] and in assay [1] were 20 mg/kg and 50 mg/kg, respectively. The results for the IC50 in assay [4] and in assay [2] were 150 nM and 30 nM, respectively.

In assay [6], `CNC(=O)Nc1ccc2c(c1)Cc1c-2nc(O)c2nc(C(=O)O)cn12` yielded a Kb of 3.92 nM. Further, the result in assay [7] was Active. The ED50 in assay [3] stood at 0.5 mg/kg; in assay [1] it was 0.7 mg/kg. In addition, the results for the IC50 in assay [5] and in assay [4] were 4330 nM and 9 nM, respectively.

Consider `CNC(=O)Nc1ccc2c(c1)C(CC(=O)O)c1c-2nc(O)c2nccn12` (racemic), for which the values for the ED50 in assay [3] and in assay [1] were 0.9 mg/kg and 1 mg/kg, respectively. Moreover, the IC50 in assay [5] was 10000 nM; in assay [2], 2 nM.
